Data set [1] concerns the target T1, UGT2B7Y(268) (Homo sapiens, UniProt P16662).
T1 sequence (P16662 24-529): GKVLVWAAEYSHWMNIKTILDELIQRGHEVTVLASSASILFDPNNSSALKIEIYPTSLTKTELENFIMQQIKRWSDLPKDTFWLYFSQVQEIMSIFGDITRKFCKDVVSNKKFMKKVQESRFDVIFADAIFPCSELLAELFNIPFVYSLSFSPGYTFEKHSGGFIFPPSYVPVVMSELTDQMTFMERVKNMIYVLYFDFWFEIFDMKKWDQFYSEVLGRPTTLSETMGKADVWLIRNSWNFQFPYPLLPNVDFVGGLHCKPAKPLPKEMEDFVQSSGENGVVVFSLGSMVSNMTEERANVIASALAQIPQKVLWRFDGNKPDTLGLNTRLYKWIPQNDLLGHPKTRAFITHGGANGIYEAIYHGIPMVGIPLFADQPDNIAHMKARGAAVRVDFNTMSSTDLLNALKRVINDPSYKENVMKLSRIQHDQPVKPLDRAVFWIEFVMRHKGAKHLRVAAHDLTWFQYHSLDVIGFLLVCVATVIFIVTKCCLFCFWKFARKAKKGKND
Kind of data set: Kinetics of glucuronidation, membrane preparations of HK293 cells stably expressing UGT2B7Y(268).

The next data set concerns the target T2, UGT2B7 (Homo sapiens, UniProt P16662).
T2 sequence (P16662 24-529): T1 sequence (P16662 24-529)
The text has this: Heterologous expression and characterization of full length UGT 2B7.
Stable UGT2B7 cell lines were established from embryonic human kidney cells (HK293 cells) and microsomal membrane fractions from these cells were used to assess the properties of the recombinant enzyme. […] The specificity of the purified UGT2B7 will be assessed by determining overall catalytic efficiency with each aglycone substrate, as reflected in a ratio of the two fundamental Michaelis kinetic parameters, Vmax/Km. Reaction rates will be determined over a range of substrate concentrations and nonlinear regression will be used to fit the UGT rate data to velocity versus substrate curves (Graph Pad, Prism). Vmax/Km values will be determined and compared with those determined with the enzyme isolated from HK293 cells (Table 1). […] This ratio will be determined for the purified enzyme using HPLC-based methods for separation and quantification of the two glucuronides.

For data set [2], the target named is T1, UGT2B7Y(268). As to conditions: human.
The target in data set [3] is T3, UGT2B7H(268) (Homo sapiens, UniProt P16662, Y268H).
T3 sequence (P16662 24-529 Y268H): T1 sequence (P16662 24-529) with Y245H
Kind of data set: Kinetics of glucuronidation, membrane preparations of HK293 cells stably expressing UGT2B7H(268).

The target of data set [4] is T1, UGT2B7Y(268). Description: in vitro.
In data set [5] the target is T3, UGT2B7H(268). As to conditions: human.
For data set [6], the target named is T3, UGT2B7H(268). Kind of data set: in vitro.

Residue numbers refer to the chain shown, from its start. Read-outs that look alike come from different tables or passages of the source.

The Km is the substrate concentration at which the rate is half of its maximum.

For the molecule `COc1ccc2c3c1O[C@H]1[C@@H](O)C=C[C@H]4[C@@H](C2)N(C)CC[C@@]341` [codeine], the Vmax on UGT2B7Y(268) [1] is 190, 40 pmol/min/mg protein; on UGT2B7H(268) [3], 97, 110 pmol/min/mg protein. Besides, the “Glucuronidation activity towards opioids” value on UGT2B7 is “demonstrated”. Further, the “conversion to the 6-O-glucuronide by UGT2B7” value at UGT2B7 was “efficiently converted”. On UGT2B7 (human, pH 7.7), the “efficiency ratio of glucuronidation, 3-OH to 6-OH” value was 7 to 1. The Michaelis constant (Km) stood at 360 µM at UGT2B7Y(268) [2], 230 µM on UGT2B7Y(268) [4], 550 µM on UGT2B7H(268) [5] and 791 µM on UGT2B7H(268) [6].

The record behind these values is patent publication US6551790B2, “Process for glucuronidation screening” (PanVera LLC, priority 1998, dated 2003).
